Strand notation (5' to 3'): a small letter for the sugar, then the base; units joined by * are phosphorothioate-linked, units joined directly phosphodiester-linked; [ ] holds rarer units or linkages, { } end groups; capitals alone tell only the bases. k = constrained ethyl (cEt); [5mC] = 5-methylcytosine; d = 2'-deoxy (DNA)
Tested on: Yap1 mRNA
Assay: Antisense inhibition of human Yap1 in A-431 cells by cEt gapmers, single dose (Example 2, RTS4814)
Assay type: cell-based
Summary of the method: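 Read-out is Yap1 mRNA as percent of untreated cells, by real-time RT-PCR (probe set RTS4814) normalized to total RNA via RIBOGREEN. Cells were A-431 dosed with 2,000 nM gapmer without transfection for approximately 48 hours.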

[1] = Table 32, Yap1 mRNA, percent of untreated control, 3-10-3 cEt gapmers targeting SEQ ID NO.: 1, and 2
[2] = Table 23, Yap1 mRNA as percent of untreated control, 3-10-3 cEt gapmers, single dose
[3] = Table 19, A-431 cells, 5,000 cells per well, free uptake, 2,000 nM modified oligonucleotide, approx. 48 hours, RTS4814, normalized to RIBOGREEN, Yap1 mRNA as percent of untreated control
[4] = Table 6, A-431 cells, 5,000 cells per well, free uptake, 2,000 nM modified oligonucleotide, approx. 48 hours, RTS4814, normalized to RIBOGREEN, Yap1 mRNA relative to untreated control cells
[5] = Table 20, Yap1 mRNA, percent of untreated control, 3-10-3 cEt gapmers targeting SEQ ID NO.: 1 and 2
[6] = Table 22, Yap1 mRNA as percent of untreated control, 3-10-3 cEt gapmers, single dose

## 1074834 (kT*kT*kG*d[5mC]*dG*dA*dG*dG*dA*dT*dA*dA*dA*kA*kT*k[5mC]; antisense) [compound 1074834]
[1]
  YAP1 (% UTC): 14 % UTC

## 1076041 (kG*kT*kT*dA*dA*dA*dG*dA*dG*dT*dG*dG*dA*kA*kA*kT; antisense) [Compound 1076041]
[2]
  YAP1 (% UTC): 47 % UTC

## 1075205 (antisense kA*kT*kT*dA*dA*dA*dT*dG*dA*dG*d[5mC]*dA*d[5mC]*k[5mC]*kA*k[5mC]) [Compound 1075205]
[3]
  YAP1 (% UTC): 29 % UTC

## 1075947 (k[5mC]*kT*kT*dT*dA*dT*dA*dG*dG*dA*dA*dT*dA*kG*kA*kG; antisense) [Compound 1075947]
Table 25, Yap1 mRNA as percent of untreated control, 3-10-3 cEt gapmers targeting SEQ ID NO.: 1, and 2
  YAP1 (% UTC): 95 % UTC

## 716498 (kG*kA*kA*dG*dG*dG*d[5mC]*d[5mC]*dA*dA*dA*dA*dT*kA*k[5mC]*kT; antisense) [Compound 716498]
[4]
  YAP1 (% UTC): 92 % UTC

## 1075059 (antisense kA*kT*kT*dT*dA*d[5mC]*dT*dT*dT*dG*dG*dA*dT*kG*kT*k[5mC]) [compound 1075059]
Table 33, Yap1 mRNA, percent of untreated control, 3-10-3 cEt gapmers targeting SEQ ID NO.: 1, and 2
  YAP1 (% UTC): 11 % UTC

## 1076070 (kA*kT*kT*dA*dG*dT*dA*dA*dT*dG*d[5mC]*dA*d[5mC]*kA*kG*kG; antisense) [Compound 1076070]
[5]
  YAP1 (% UTC): 6 % UTC

## 716495 (kG*kT*kT*dA*dT*dG*dA*dA*d[5mC]*d[5mC]*d[5mC]*dT*dT*kG*kA*kA; antisense) [Compound 716495]
[4]
  YAP1 (% UTC): 58 % UTC

## 716566 (kG*kG*kT*dA*dA*d[5mC]*dT*d[5mC]*dT*dT*d[5mC]*dT*dT*kT*k[5mC]*k[5mC]; antisense) [Compound 716566]
Table 5, A-431 cells, 5,000 cells per well, free uptake, 2,000 nM modified oligonucleotide, approx. 48 hours, RTS4814, normalized to RIBOGREEN, Yap1 mRNA relative to untreated control cells
  YAP1 (% UTC): 102 % UTC

## 1074854 (antisense kA*k[5mC]*kA*dA*dT*dT*dG*dT*dT*dA*dT*dG*dA*kT*kA*kG) [Compound 1074854]
[5]
  YAP1 (% UTC): 23 % UTC

## 1075783 (k[5mC]*kT*kT*dA*dA*dT*dT*dT*dA*d[5mC]*d[5mC]*dT*dG*kA*kA*k[5mC]; antisense) [Compound 1075783]
Table 21, Yap1 mRNA, percent of untreated control, 3-10-3 cEt gapmers targeting SEQ ID NO.: 1 and 2
  YAP1 (% UTC): 36 % UTC

## 1074376 (antisense kA*kA*k[5mC]*dG*dG*dT*dT*d[5mC]*dT*dG*d[5mC]*dT*dG*kT*kG*kA) [Compound 1074376]
[6]
  YAP1 (% UTC): 44 % UTC

## 1075464 (antisense k[5mC]*k[5mC]*kA*d[5mC]*dT*dA*dA*dA*d[5mC]*d[5mC]*dA*d[5mC]*d[5mC]*kT*kA*kA) [Compound 1075464]
[6]
  YAP1 (% UTC): 77 % UTC

## 1074629 (antisense kG*kA*kG*dA*dT*dT*dT*dT*dA*dT*dG*d[5mC]*d[5mC]*kT*kG*kT) [Compound 1074629]
[3]
  YAP1 (% UTC): 3 % UTC

## 1076144 (kT*kT*kT*dT*dA*dT*dA*dG*dG*dG*d[5mC]*dA*dA*kT*kG*kG; antisense) [compound 1076144]
Yap1 mRNA as percent of untreated control, A-431 cells, 3-10-3 cEt gapmers targeting SEQ ID NO.: 1, and 2, Table 30
  YAP1 (% UTC): 7 % UTC

## 1074930 (antisense k[5mC]*kT*kA*dT*dA*d[5mC]*dA*dA*d[5mC]*dA*dG*dG*d[5mC]*k[5mC]*kT*kG) [compound 1074930]
[1]
  YAP1 (% UTC): 84 % UTC

## 1075269 (antisense kT*kT*kA*dT*dT*dA*dA*d[5mC]*d[5mC]*dT*dG*dG*dA*kG*kA*kG) [Compound 1075269]
[3]
  YAP1 (% UTC): 13 % UTC

## 1074660 (antisense kA*kA*kT*dT*dT*d[5mC]*dA*dT*dT*dA*d[5mC]*dT*dA*k[5mC]*kT*k[5mC]) [Compound 1074660]
Table 18, A-431 cells, 5,000 cells per well, free uptake, 2,000 nM modified oligonucleotide, approx. 48 hours, RTS4814, normalized to RIBOGREEN, Yap1 mRNA as percent of untreated control
  YAP1 (% UTC): 48 % UTC

## 716424 (kG*k[5mC]*kA*dA*dT*dG*dG*dA*d[5mC]*dA*dA*dG*dG*kA*kA*kG; antisense) [Compound 716424]
A-431 cells, 5,000 cells per well, free uptake, 2,000 nM modified oligonucleotide, approx. 48 hours, RTS4814, normalized to RIBOGREEN, Table 4, asterisk (*) = targets amplicon region of primer probe set
  YAP1 (% UTC): 25 % UTC

## 1076009 (kT*kA*kG*d[5mC]*dG*dA*dA*dA*dA*dT*dA*dA*d[5mC]*kA*kT*kT; antisense) [Compound 1076009]
[2]
  YAP1 (% UTC): 69 % UTC

## 1075562 (kG*kT*kA*dT*dT*dT*dA*dT*dG*dG*d[5mC]*dA*dA*k[5mC]*kA*kT; antisense) [Compound 1075562]
Table 24, Yap1 mRNA as percent of untreated control, 3-10-3 cEt gapmers targeting SEQ ID NO.: 1, and 2
  YAP1 (% UTC): 15 % UTC

## 1075525 (kT*kT*kA*dA*dT*dT*dA*dA*dG*dG*dG*d[5mC]*d[5mC]*k[5mC]*kA*k[5mC]; antisense) [Compound 1075525]
[3]
  YAP1 (% UTC): 130 % UTC

— US11214803B2, “Modulators of YAP1 expression” (Ionis Pharmaceuticals, Inc., priority 2019, dated 2022)
